Results as given in PubChem BioAssay AID330 (DTP/NCI, 2004).
Several values for one entry are separate records, joined by “and”; a condition that tells them apart may be missing. Identical values can stand only once. Inconclusive results and toxic doses are left out.

Test system: P388 leukemia ip, CD2F1 mice, survival T/C
Assay: NCI In Vivo Anticancer Drug Screen. Data for tumor model P388 Leukemia (intraperitoneal) in CD2F1 (CDF1) mice
Conditions: endpoint: median survival time, higher = longer survival
Procedure, shortened: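 Mice carrying the transplanted tumor received test compound or vehicle. Survival was recorded in each group, and the value is the treated-group measurement divided by that of the vehicle-treated control group.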

[1] = dose: 60.0 mg/kg/injection, schedule: Q01DX005 (ip), vehicle: saline with Tween-80
[2] = dose: 120.0 mg/kg/injection, schedule: Q01DX005 (ip), vehicle: saline with Tween-80
[3] = dose: 240.0 mg/kg/injection, schedule: Q01DX005 (ip), vehicle: saline with Tween-80
[4] = dose: 12.5 mg/kg/injection, schedule: Q01DX009 (ip), vehicle: saline
[5] = dose: 25.0 mg/kg/injection, schedule: Q01DX009 (ip), vehicle: saline
[6] = dose: 50.0 mg/kg/injection, schedule: Q01DX009 (ip), vehicle: saline
[7] = dose: 50.0 mg/kg/injection, schedule: Q04DX003 (ip), vehicle: saline with Tween-80
[8] = dose: 100.0 mg/kg/injection, schedule: Q04DX003 (ip), vehicle: saline with Tween-80
[9] = dose: 200.0 mg/kg/injection, schedule: Q04DX003 (ip), vehicle: saline with Tween-80
[10] = dose: 50.0 mg/kg/injection, schedule: Q01DX005 (ip), vehicle: Klucel (hydroxypropylcellulose) (HPC)
[11] = dose: 100.0 mg/kg/injection, schedule: Q01DX005 (ip), vehicle: Klucel (hydroxypropylcellulose) (HPC)
[12] = dose: 200.0 mg/kg/injection, schedule: Q01DX005 (ip), vehicle: Klucel (hydroxypropylcellulose) (HPC)

COc1ccccc1C(=O)Nc1c(C)cccc1Cl
T/C [1]: 100 % of control
T/C [2]: 103 % of control
T/C [3]: 94 % of control

CC(C)c1ccccc1Oc1ccccc1N=C1CCN(C)C1
T/C [4]: 100 % of control
T/C [5]: 107 % of control
T/C [6]: 100 % of control and 95 % of control

NC(=O)CCN1CCCN(CCC(N)=O)CCN(CCC(N)=O)CCCN(CCC(N)=O)CC1
T/C [1]: 102 % of control
T/C [2]: 110 % of control
T/C [3]: 94 % of control

Cc1cc(Cl)ccc1NC(=O)COc1ccc(Cl)cc1Cl
T/C [7]: 100 % of control
T/C [8]: 95 % of control
T/C [9]: 90 % of control

CNC(=O)N(C)CP(=O)(O)OC
T/C [6]: 100 % of control
T/C (dose: 100.0 mg/kg/injection, schedule: Q01DX009 (ip), vehicle: saline): 98 % of control
T/C (dose: 200.0 mg/kg/injection, schedule: Q01DX009 (ip), vehicle: saline): 91 % of control

Nc1ccnc(N)c1N=O
T/C [8]: 103 % of control
T/C [9]: 99 % of control
T/C (dose: 400.0 mg/kg/injection, schedule: Q04DX003 (ip), vehicle: saline with Tween-80): 97 % of control

Cc1cc(C)nc(/C=C/c2ccc(/C=C/c3cc(C)cc(C)n3)cc2)c1
T/C [1]: 97 % of control
T/C [2]: 87 % of control
T/C [3]: 92 % of control

COc1ccc(-c2c3ccc(=O)c(OC)cc3cn2C)cc1OC
T/C [10]: 102 % of control
T/C [11]: 94 % of control
T/C [12]: 94 % of control

CCNC(=NC)c1ccc(NC(=O)c2ccc(C(=O)Nc3ccc(C(=NC)NCC)cc3)cc2)cc1
T/C (dose: 1.5 mg/kg/injection, schedule: Q04DX003 (ip), vehicle: saline with Tween-80): 95 % of control
T/C (dose: 3.0 mg/kg/injection, schedule: Q01DX009 (ip), vehicle: saline with Tween-80): 172 % of control
T/C (dose: 3.0 mg/kg/injection, schedule: Q04DX003 (ip), vehicle: saline with Tween-80): 100 % of control
T/C (dose: 6.0 mg/kg/injection, schedule: Q04DX003 (ip), vehicle: saline with Tween-80): 109 % of control

COc1ccccc1C1N(C)CCCN1C
T/C (dose: 6.25 mg/kg/injection, schedule: Q01DX009 (ip), vehicle: saline): 95 % of control
T/C [4]: 95 % of control
T/C [5]: 100 % of control

N#CC1CC(=O)c2ccccc2C1=O (stereo not drawn)
T/C [10]: 102 % of control
T/C [11]: 104 % of control
T/C [12]: 108 % of control

Brc1ccc(Oc2ccc(Br)cc2)cc1
T/C (dose: 50.0 mg/kg/injection, schedule: Q01DX009 (ip), vehicle: Klucel (hydroxypropylcellulose) (HPC)): 100 % of control
T/C (dose: 100.0 mg/kg/injection, schedule: Q01DX009 (ip), vehicle: Klucel (hydroxypropylcellulose) (HPC)): 98 % of control
T/C (dose: 200.0 mg/kg/injection, schedule: Q01DX009 (ip), vehicle: Klucel (hydroxypropylcellulose) (HPC)): 92 % of control

C[n+]1ccc(NC(=O)c2ccc(NC(=O)c3cccc(C(=O)Nc4ccc(C(=O)Nc5cc[n+](C)cc5)cc4)c3)cc2)cc1
T/C (dose: 6.25 mg/kg/injection, schedule: Q04DX003 (ip), vehicle: saline with Tween-80): 112 % of control
T/C (dose: 12.5 mg/kg/injection, schedule: Q04DX003 (ip), vehicle: saline with Tween-80): 120 % of control
T/C (dose: 25.0 mg/kg/injection, schedule: Q01DX009 (ip), vehicle: saline with Tween-80): 159 % of control
T/C (dose: 50.0 mg/kg/injection, schedule: Q01DX009 (ip), vehicle: saline with Tween-80): 195 % of control
T/C [7]: 154 % of control
T/C (dose: 66.0 mg/kg/injection, schedule: Q04DX003 (ip), vehicle: saline with Tween-80): 170 % of control
